Results as given in ChEMBL document CHEMBL3044556, “Managing weeds with drip-applied herbicides in tomato” (2008).

Assays:
Assay type in all cases: functional
[1] = tested on: Eleusine indica; assay: Pre-emergence herbicidal activity against Eleusine indica in tomato field assessed as increase in total marketable weight at 1.14 kg/ha applied through drip lines/backpack-spray on week 3 to 4 before transplanting relative to untreated control; settings: pooled result: one value given for 8 cell lines, strains, targets or settings
[2] = tested on: Corynandra viscosa; assay: Pre-emergence herbicidal activity against Cleome viscosa in tomato field assessed as increase in extra-large fruit weight at 1.14 kg/ha applied through drip lines/backpack-spray on week 3 to 4 before transplanting relative to untreated control
[3] = tested on: Trianthema; assay: Pre-emergence herbicidal activity against Trianthema spp. in tomato field assessed as number of weeds at 1.14 kg/ha applied through drip lines/backpack-spray on week 3 to 4 before transplanting measured 7 weeks after treatment (reference value: 9 plants/m2)
[4] = tested on: Portulaca oleracea; assay: Pre-emergence herbicidal activity against Portulaca oleracea in tomato field assessed as number of weeds at 1.14 kg/ha applied through drip lines/backpack-spray on week 3 to 4 before transplanting measured 7 weeks after treatment (reference value: 9 plants/m2)
[5] = tested on: Poaceae; assay: Pre-emergence herbicidal activity against Poaceae (grass family) in tomato field assessed as number of weeds at 1.14 kg/ha applied through drip lines/backpack-spray on week 3 to 4 before transplanting measured 7 weeks after treatment (reference value: 6 plants/m2)
[6] = tested on: Corynandra viscosa; assay: Pre-emergence herbicidal activity against Cleome viscosa in tomato field assessed as number of weeds at 1.14 kg/ha applied through drip lines/backpack-spray on week 3 to 4 before transplanting measured 7 weeks after treatment (reference value: 9 plants/m2)
[7] = tested on: Trianthema; assay: Pre-emergence herbicidal activity against Trianthema spp. in tomato field assessed as number of extra-large fruits at 1.14 kg/ha applied through drip lines/backpack-spray on week 3 to 4 before transplanting (reference value: 21.3 x 10 '3 ha); settings: pooled result: one value given for 8 cell lines, strains, targets or settings
[8] = tested on: Boerhavia erecta; assay: Pre-emergence herbicidal activity against Boerhavia erecta in tomato field assessed as number of weeds at 1.14 kg/ha applied through drip lines/backpack-spray on week 3 to 4 before transplanting measured 7 weeks after treatment (reference value: 9 plants/m2)
[9] = tested on: Echinochloa colona; assay: Pre-emergence herbicidal activity against Echinochloa colona in tomato field assessed as increase in extra-large fruit weight at 1.14 kg/ha applied through drip lines/backpack-spray on week 3 to 4 before transplanting relative to untreated control
[10] = tested on: Digitaria; assay: Pre-emergence herbicidal activity against Digitaria spp. in tomato field assessed as increase in extra-large fruit weight at 1.14 kg/ha applied through drip lines/backpack-spray on week 3 to 4 before transplanting relative to untreated control
[11] = tested on: Amaranthus dubius; assay: Pre-emergence herbicidal activity against Amaranthus dubius in tomato field assessed as number of weeds at 1.14 kg/ha applied through drip lines/backpack-spray on week 3 to 4 before transplanting measured 12 weeks after treatment (reference value: 9 plants/m2)
[12] = tested on: Digitaria; assay: Pre-emergence herbicidal activity against Digitaria spp. in tomato field assessed as number of weeds at 1.14 kg/ha applied through drip lines/backpack-spray on week 3 to 4 before transplanting measured 12 weeks after treatment (reference value: 9 plants/m2)
[13] = tested on: Portulaca oleracea; assay: Pre-emergence herbicidal activity against Portulaca oleracea in tomato field assessed as number of weeds at 1.14 kg/ha applied through drip lines/backpack-spray on week 3 to 4 before transplanting measured 12 weeks after treatment (reference value: 9 plants/m2)
[14] = tested on: Cyperus; assay: Pre-emergence herbicidal activity against Cyperus in tomato field assessed as number of weeds at 1.14 kg/ha applied through drip lines/backpack-spray on week 3 to 4 before transplanting measured 12 weeks after treatment (reference value: 5 plants/m2)
[15] = tested on: Eleusine indica; assay: Pre-emergence herbicidal activity against Eleusine indica in tomato field assessed as number of weeds at 1.14 kg/ha applied through drip lines/backpack-spray on week 3 to 4 before transplanting measured 12 weeks after treatment (reference value: 9 plants/m2)
[16] = tested on: Portulaca oleracea; assay: Pre-emergence herbicidal activity against Portulaca oleracea in tomato field assessed as increase in extra-large fruit weight at 1.14 kg/ha applied through drip lines/backpack-spray on week 3 to 4 before transplanting relative to untreated control
[17] = tested on: Echinochloa colona; assay: Pre-emergence herbicidal activity against Echinochloa colona in tomato field assessed as number of weeds at 1.14 kg/ha applied through drip lines/backpack-spray on week 3 to 4 before transplanting measured 12 weeks after treatment (reference value: 9 plants/m2)
[18] = tested on: Trianthema; assay: Pre-emergence herbicidal activity against Trianthema spp. in tomato field assessed as number of weeds at 1.14 kg/ha applied through drip lines/backpack-spray on week 3 to 4 before transplanting measured 12 weeks after treatment (reference value: 9 plants/m2)
[19] = tested on: Digitaria; assay: Pre-emergence herbicidal activity against Digitaria spp. in tomato field assessed as number of weeds at 1.14 kg/ha applied through drip lines/backpack-spray on week 3 to 4 before transplanting measured 7 weeks after treatment (reference value: 9 plants/m2)
[20] = tested on: Amaranthus dubius; assay: Pre-emergence herbicidal activity against Amaranthus dubius in tomato field assessed as increase in extra-large fruit weight at 1.14 kg/ha applied through drip lines/backpack-spray on week 3 to 4 before transplanting relative to untreated control
[21] = tested on: Boerhavia erecta; assay: Pre-emergence herbicidal activity against Boerhavia erecta in tomato field assessed as number of weeds at 1.14 kg/ha applied through drip lines/backpack-spray on week 3 to 4 before transplanting measured 12 weeks after treatment (reference value: 9 plants/m2)
[22] = tested on: Eleusine indica; assay: Pre-emergence herbicidal activity against Eleusine indica in tomato field assessed as number of weeds at 1.14 kg/ha applied through drip lines/backpack-spray on week 3 to 4 before transplanting measured 7 weeks after treatment (reference value: 9 plants/m2)
[23] = tested on: Echinochloa colona; assay: Pre-emergence herbicidal activity against Echinochloa colona in tomato field assessed as number of weeds at 1.14 kg/ha applied through drip lines/backpack-spray on week 3 to 4 before transplanting measured 7 weeks after treatment (reference value: 9 plants/m2)
[24] = tested on: Eleusine indica; assay: Pre-emergence herbicidal activity against Eleusine indica in tomato field assessed as increase in extra-large fruit weight at 1.14 kg/ha applied through drip lines/backpack-spray on week 3 to 4 before transplanting relative to untreated control
[25] = tested on: Corynandra viscosa; assay: Pre-emergence herbicidal activity against Cleome viscosa in tomato field assessed as number of weeds at 1.14 kg/ha applied through drip lines/backpack-spray on week 3 to 4 before transplanting measured 12 weeks after treatment (reference value: 9 plants/m2)
[26] = tested on: Eleusine indica; assay: Pre-emergence herbicidal activity against Eleusine indica in tomato field assessed as total number of fruits at 1.14 kg/ha applied through drip lines/backpack-spray on week 3 to 4 before transplanting (reference value: 49.5 x 10 '3 ha); settings: pooled result: one value given for 8 cell lines, strains, targets or settings
[27] = tested on: Amaranthus dubius; assay: Pre-emergence herbicidal activity against Amaranthus dubius in tomato field assessed as number of weeds at 1.14 kg/ha applied through drip lines/backpack-spray on week 3 to 4 before transplanting measured 7 weeks after treatment (reference value: 9 plants/m2)
[28] = tested on: Trianthema; assay: Pre-emergence herbicidal activity against Trianthema spp. in tomato field assessed as increase in extra-large fruit weight at 1.14 kg/ha applied through drip lines/backpack-spray on week 3 to 4 before transplanting relative to untreated control
[29] = tested on: Poaceae; assay: Pre-emergence herbicidal activity against Poaceae (grass family) in tomato field assessed as number of weeds at 1.14 kg/ha applied through drip lines/backpack-spray on week 3 to 4 before transplanting measured 12 weeks after treatment (reference value: 8 plants/m2)
[30] = tested on: Cyperus; assay: Pre-emergence herbicidal activity against Cyperus in tomato field assessed as number of weeds at 1.14 kg/ha applied through drip lines/backpack-spray on week 3 to 4 before transplanting measured 7 weeks after treatment (reference value: 3 plants/m2)
[31] = tested on: Boerhavia erecta; assay: Pre-emergence herbicidal activity against Boerhavia erecta in tomato field assessed as increase in extra-large fruit weight at 1.14 kg/ha applied through drip lines/backpack-spray on week 3 to 4 before transplanting relative to untreated control

In the case of CCc1cccc(C)c1N(C(=O)CCl)[C@@H](C)COC [S-METOLACHLOR], the Activity [1] is reported as 57%, the Activity [2] is reported as 75% and the Activity [3] is reported as 3 /m2. The Activity [4] was 3 /m2, the Activity [5] was 0 /m2 and the Activity [6] was 3 /m2. For the same compound, the Activity [7] was 35 10^3 fruits/ha, the Activity [8] was 3 /m2 and the Activity [9] was 75%. For the same compound, the Activity [10] was 75%, the Activity [11] was 2 /m2 and the Activity [12] was 2 /m2. For the same compound, the Activity [13] was 2 /m2, the Activity [14] was 9 /m2 and the Activity [15] was 2 /m2. The Activity [16] was 75%, the Activity [17] was 2 /m2 and the Activity [18] was 2 /m2. For the same compound, the Activity [19] was 3 /m2, the Activity [20] was 75% and the Activity [21] was 2 /m2. For the same compound, the Activity [22] was 3 /m2, the Activity [23] was 3 /m2 and the Activity [24] was 75%. The Activity [25] was 2 /m2, the fruit count [26] was 70.8 10^3 fruits/ha and the Activity [27] was 3 /m2. For the same compound, the Activity [28] was 75%, the Activity [29] was 3 /m2 and the Activity [30] was 2 /m2. It also gave an Activity [31] of 75%.
